From doi:10.1101/2023.11.02.565282v1 (biorxiv, 2023)
Read-outs that look alike come from different tables or passages of the source.

Assays:
[1] = target: T1, GluK2(VCQ)2a (Rattus norvegicus, UniProt P42260, I567V/Y571C); experiment: calcium-sensitive fluorescence assay; format: cell-based; details: agonist; with 150 µM BPAM344; Fluo buffer pH 7.4
[2] = target: T1, GluK2(VCQ)2a; experiment: calcium-sensitive fluorescence assay; format: cell-based

T1 sequence (P42260 32-908 I567V/Y571C): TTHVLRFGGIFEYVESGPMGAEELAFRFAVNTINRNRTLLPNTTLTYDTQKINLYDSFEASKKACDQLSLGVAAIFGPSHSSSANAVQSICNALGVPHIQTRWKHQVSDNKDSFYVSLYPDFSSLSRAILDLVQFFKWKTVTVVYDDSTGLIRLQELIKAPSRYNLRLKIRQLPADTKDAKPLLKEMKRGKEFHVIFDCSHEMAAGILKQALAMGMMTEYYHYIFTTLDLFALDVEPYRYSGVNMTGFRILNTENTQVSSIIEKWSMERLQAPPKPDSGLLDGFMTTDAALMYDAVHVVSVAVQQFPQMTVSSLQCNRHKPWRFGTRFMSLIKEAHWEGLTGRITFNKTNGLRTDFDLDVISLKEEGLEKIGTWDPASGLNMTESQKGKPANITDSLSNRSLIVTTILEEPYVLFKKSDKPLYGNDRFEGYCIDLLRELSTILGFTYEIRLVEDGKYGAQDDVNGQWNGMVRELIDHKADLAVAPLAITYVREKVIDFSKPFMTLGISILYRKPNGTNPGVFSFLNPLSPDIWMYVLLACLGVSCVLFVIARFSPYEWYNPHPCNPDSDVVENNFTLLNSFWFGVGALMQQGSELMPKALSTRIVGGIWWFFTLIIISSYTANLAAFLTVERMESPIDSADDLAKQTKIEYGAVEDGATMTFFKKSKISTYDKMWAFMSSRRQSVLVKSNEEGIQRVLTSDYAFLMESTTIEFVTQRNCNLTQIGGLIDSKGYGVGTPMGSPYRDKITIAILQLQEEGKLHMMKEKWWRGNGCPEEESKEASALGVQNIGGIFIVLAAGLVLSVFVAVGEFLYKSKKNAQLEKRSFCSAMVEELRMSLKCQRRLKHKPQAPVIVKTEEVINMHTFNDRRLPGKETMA

| EC50 [2] [µM] | Structure (SMILES) | EC50 [1] [µM] |
| --- | --- | --- |
|  | C/C(=C/C=C/[C@@H](C)C(=O)O)[C@H]1CN[C@H](C(=O)O)[C@H]1CC(=O)O [domoate] | 1.33 |
| 75.4 | O=S1(=O)NCN(C2CC2)c2ccc(F)cc21 [BPAM344] |  |
